ChEMBL document CHEMBL1201862, “PubChem BioAssay data set” (2004)
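Following 48 hours of exposure in 96-well plates, responses at five concentrations were used to interpolate endpoints linearly. At the GI50, growth is halved.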 Activity calls are given as the source filed them. No stated cut-off is given here; in the data, active = GI50 up to about 1.1 µM and inactive = higher.

Tests used:
Assay in all cases: NCI-60 cell line screen, 48 h
SF-295 = test system: SF-295
UO-31 = test system: UO-31
MCF7 = test system: MCF7
UACC-257 = test system: UACC-257
MDA-MB-231 = test system: MDA-MB-231
Hs-578T = test system: Hs-578T
MDA-N = test system: MDA-N
NCI-H226 = test system: NCI-H226
HCT-15 = test system: HCT-15
SF-268 = test system: SF-268
HL-60 = test system: HL-60
ACHN = test system: ACHN
A498 = test system: A498
CCRF-CEM = test system: CCRF-CEM
PC-3 = test system: PC-3
NCI-H522 = test system: NCI-H522
KM12 = test system: KM12
NCI-H23 = test system: NCI-H23
MDA-MB-435 = test system: MDA-MB-435
DU-145 = test system: DU-145

SMILES	GI50 (SF-295)	GI50 (UO-31)	GI50 (MCF7)	GI50 (UACC-257)	GI50 (MDA-MB-231)	GI50 (Hs-578T)	GI50 (MDA-N)	GI50 (NCI-H226)	GI50 (HCT-15)	GI50 (SF-268)	GI50 (HL-60)	GI50 (ACHN)	GI50 (A498)	GI50 (CCRF-CEM)	GI50 (PC-3)	GI50 (NCI-H522)	GI50 (KM12)	GI50 (NCI-H23)	GI50 (MDA-MB-435)	GI50 (DU-145)
COc1cc(OC)c(OC)cc1/C=C1\C=Cc2ccccc21	18.5 µM (inactive)	16.3 µM (inactive)	12.1 µM (inactive)	16.3 µM (inactive)	12.6 µM (inactive)	22.9 µM (inactive)	9.18 µM (inactive)	26.9 µM (inactive)	12.4 µM	17.1 µM (inactive)	5.82 µM (inactive)	27.1 µM (inactive)	> 10 µM (inactive)	16.3 µM (inactive)	5.52 µM (inactive)	12.1 µM (inactive)	10.3 µM (inactive)	18.8 µM (inactive)	5.32 µM (inactive)	28.8 µM (inactive)
COc1cc(OC)c2nc(C)c3c(c2c1)SCC3	27.5 µM (inactive)	21.9 µM (inactive)	15.6 µM (inactive)	31.7 µM (inactive)	21.1 µM (inactive)	19.8 µM (inactive)	28.8 µM (inactive)	20.4 µM (inactive)	42.3 µM	19.4 µM (inactive)	78 µM (inactive)	18.7 µM (inactive)	18.6 µM (inactive)	> 100 µM (inactive)	20 µM (inactive)	36.1 µM (inactive)	68.5 µM (inactive)	31.9 µM (inactive)	25.5 µM (inactive)	44.8 µM (inactive)
COCn1c(C)c(C)c2c(=O)oc(=O)[nH]c21	> 100 µM (inactive)	> 100 µM (inactive)	> 100 µM (inactive)	> 100 µM (inactive)	> 100 µM (inactive)	> 100 µM (inactive)	> 100 µM (inactive)	> 100 µM (inactive)	> 100 µM	> 100 µM (inactive)	54.8 µM (inactive)	> 100 µM (inactive)	> 100 µM (inactive)	> 100 µM (inactive)	> 100 µM (inactive)	> 100 µM (inactive)	> 100 µM (inactive)	> 100 µM (inactive)	> 100 µM (inactive)	> 100 µM (inactive)
